From patent publication US8796323B2, “Defensin-like molecules as novel antimicrobial agents” (University of Maryland, Baltimore, priority 2010, dated 2014) come the findings set out here.

The assay has as its system Staphylococcus aureus ATCC 29213. Kind of assay: 96-well turbidimetric antibacterial activity assay of HNP1, with or without Lipid II synthesis inhibitors. The assay is classed as cell-based. As to the method: The antibacterial activity of HNP1 against Staphylococcus aureus ATCC 29213 was carried out in a 96-well turbidimetric assay essentially as described in Ericksen, B., et al., 2005, “Antibacterial activity and specificity of the six human {alpha}-defensins.” Lipid II levels in S. aureus were manipulated by the addition of three different inhibitors of cell wall synthesis: bacitracin (250 μg/ml), D-cycloserine (64 μg/ml) and fosfomycine (250 μg/ml). Bacterial cultures were pretreated with these compounds for 30 min under shaking at 37° C. […] Bacterial growth was monitored for 12 hours and data were analyzed as described.
To examine whether the observed interaction between HNP1 and Lipid II is functionally relevant in the environment of the membrane, the inventors determined the ability of HNP1 to kill S. aureus with altered levels of Lipid II. Three different inhibitors of cell wall synthesis, fosfomycine, D-cycloserine, and bacitracin, were used to reduce the lipid II levels in S. aureus cells. Bacitracin binds directly to undecaprenyl pyrophosphate, the portion of lipid II that remains in the membrane once GlcNAc-MurNAc is polymerized, and prevents its use in subsequent cycles of lipid II synthesis. Fosfomycine is an inhibitor of MurA, the enzyme responsible for the first step in peptidoglycan synthesis. D-Cycloserine inhibits both alanine racemase and D-Ala-D-Ala ligase, two enzymes required for the synthesis of the D-Ala-D-Ala dipeptide of lipid II. All three inhibitors thus block the synthesis of lipid II (Lunde, C. S., et al., 2009, “Telavancin disrupts the functional integrity of the bacterial membrane through targeted interaction with the cell wall precursor lipid II,” Antimicrob Agents Chemother 53:3375-3383.) S. aureus cells were exposed to each of the Lipid II synthesis inhibitors for 30 min and subsequently exposed to HNP1 at concentrations ranging from 256 to 1 μg/ml for 15 min (FIG. 4).
Survival curves of S. aureus ATCC 29213 exposed to HNP1 at concentrations varying two-fold from 1 to 256 μg/ml. […] Points scored as zero survival could not be plotted.

Take “HNP1: α-defensin Human Neutrophil Peptide 1, chemically synthesized and folded”: under “15 min exposure to HNP1”, the “killing of S. aureus” value is “efficiently killed S. aureus”. The “killing of S. aureus by HNP-1 after pre-treatment with Lipid II synthesis inhibitors, 2 hours exposure” value (HNP-1 exposure 2 hours, data not shown) is “no difference in bacterial killing”. Under “fosfomycine, D-cycloserine, bacitracin 30 min pre-treatment, HNP1 15 min”, the “killing of S. aureus by HNP1 after pre-treatment with Lipid II synthesis inhibitors” value is on record as “attenuated killing of S. aureus by HNP1 markedly”.
